Measured values: US20110144205A1, “Blood Glutathione as a Biomarker for Screening Asymptomatic Patients at Risk for Heart Failure” (INSERM (Institut National de la Recherche Medicale), priority 2008, published 2011)

What was measured:
[1] = system: postoperative atrial fibrillation; conditions: cited from earlier work
[2] = system: mouse model of human hypertrophic cardiomyopathy; conditions: oral NAC treatment; cited from earlier work
[3] = system: heart-failing hypertensive rats; conditions: oral NAC treatment; cited from earlier work
[4] = system: cardiomyopathic mice with missense LMNA mutation; test: Mouse model carrying a missense LMNA mutation and developing a dilated cardiomyopathy; assay type: in vivo; conditions: oral treatment, mouse model with missense LMNA mutation
[5] = system: cardiomyopathic mice with missense LMNA mutation; conditions: oral NAC treatment; cited from earlier work

SMILES: CC(=O)N[C@@H](CS)C(=O)O [NAC, N-acetylcysteine]
- incidence of postoperative atrial fibrillation (AF) ([1]; intravenous infusion for 1 h before and 48 h after cardiac surgery, Ozaydin et al. 2008): decreased the incidence of postoperative atrial fibrillation
- post-operative atrial fibrillation ([1]; oral NAC treatment, patients): prevents post-operative atrial fibrillation
- established hypertrophy [2]: reverses established hypertrophy
- cardiac structure and function [3]: improves cardiac structure and function
- heart structure and function [4]: significantly improved heart structure and function
- cardiac structure and function [5]: improves cardiac structure and function
